Assay results taken from US20240002375A1, “2-(INDAZOL-5-YL)-6-(PIPERIDIN-4-YL)-1,7-NAPHTHYRIDINE DERIVATIVES AND RELATED COMPOUNDS AS MODULATORS FOR SPLICING NUCLEIC ACIDS AND FOR THE TRE” (REMIX THERAPEUTICS INC., priority 2020, published 2024).
Structures can show the parent of a compound that is named as a salt. Where two headings read alike, the source gives them in different places.

Key:
Assay type in all cases: cell-based
Target C CJ mRNA = assay: Gene panel canonical junction qPCR splicing assay, Target C; settings: Table 4, read-out: Target C IC50 (decrease in CJ mRNA levels)
Procedure, shortened: (§1)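 A673 or K562 cells treated with compound; canonical-junction mRNA measured by RT-qPCR with junction-spanning primer/probe sets, normalized to GAPDH, GUSB or PPIA and DMSO (2^−ΔΔCt). IC50 for CJ decrease from 4-parameter logistic fit of percentage response.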

HTT CJ mRNA = assay: Gene panel canonical junction qPCR splicing assay, HTT; settings: Table 4, read-out: HTT IC50 (decrease in CJ mRNA levels)
Procedure, shortened: as §1

HTT mRNA = assay: Splicing assay (RT-qPCR) of HTT mRNA alternative junction (AJ) and canonical junction (CJ)
Procedure, shortened: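 A673 (adherent, 24 h pre-plating) or K562 cells treated 24 h at 37 °C with an 11-point 3-fold dilution series, top 10 uM, DMSO ≤0.25%. Lysates analysed by one-step RT-qPCR for HTT canonical (CJ) and alternative-exon (AJ) junctions, normalised to PPIA (A673) or GAPDH/GUSB (K562).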

SMN2 CJ mRNA = assay: Gene panel canonical junction qPCR splicing assay, SMN2; settings: Table 4, read-out: SMN2 IC50 (decrease in CJ mRNA levels)
Procedure, shortened: as §1

[1] = decrease in CJ mRNA, A673 or K562 cells, 24 hours, read-out: HTT CJ IC50
[2] = increase in AJ mRNA, A673 or K562 cells, 24 hours, read-out: HTT AJ AC50

SMILES | IC50 (Target C CJ mRNA) [µM] | IC50 (HTT CJ mRNA) [µM] | IC50 (HTT mRNA; [1]) [nM] | AC50 (HTT mRNA; [2]) [nM] | IC50 (SMN2 CJ mRNA) [µM] | AC50 (HTT mRNA; 24 h, read-out: HTT AJ AC50 (nM)) [nM] | IC50 (HTT mRNA; 24 h, read-out: HTT CJ IC50 (nM)) [nM]
Cn1cc2cc(-c3ccc4nc(N5CCC(NC(C)(C)C)CC5)ccc4n3)c(O)cc2n1 [Compound 132, 5-[6-[4-(tert-butylamino)piperidin-1-yl]-1,5-naphthyridin-2-yl]-2-methylindazol-6-ol] | > 10 | > 10 | > 10000 | > 10000 | > 10 | – | –
CN(C)C1CCN(c2ccc3nc(-c4cc5cn(C)nc5cc4O)ccc3n2)CC1 [Compound 133, 5-[6-[4-(dimethylamino)piperidin-1-yl]-1,5-naphthyridin-2-yl]-2-methylindazol-6-ol] | 1 to 10 | 1 to 10 | 1000 to 10000 | 1000 to 10000 | < 0.1 | – | –
Cn1cc2cc(-c3ccc4nc(N5CCN6CCCC6C5)ccc4n3)c(O)cc2n1 (stereo not drawn) [Compound 134, 5-(6-[hexahydro-1H-pyrrolo[1,2-a]pyrazin-2-yl]-1,5-naphthyridin-2-yl)-2-methylindazol-6-ol] | 1 to 10 | 1 to 10 | 1000 to 10000 | 1000 to 10000 | < 0.1 | – | –
Cn1cc2cc(-c3ccc4nc(N5C[C@H]6CC[C@@H](C5)N6)ccc4n3)c(O)cc2n1 [Compound 135, 5-[6 [(1R,5 S)-3,8-diazabicyclo[3.2.1]octan-3-yl]-1,5-naphthyridin-2-yl]-2-methylindazol-6-01] | 1 to 10 | 1 to 10 | 1000 to 10000 | 1000 to 10000 | < 0.1 | – | –
Cn1cc2cc(-c3ccc4nc(N5CCNCC5)ccc4n3)c(O)cc2n1 [Compound 136] | 0.1 to 1 | 1 to 10 | 1000 to 10000 | 1000 to 10000 | < 0.1 | – | –
C[C@@H]1CC(c2ccc3nc(-c4cc5cn(C)nc5cc4O)ccc3n2)C[C@H](C)N1 (stereo partly drawn) [Compound 137, 5-[6-[(2R,6S)-2,6-dimethylpiperidin-4-yl]-1,5-naphthyridin-2-yl]-2-methylindazol-6-ol] | 1 to 10 | 0.1 to 1 | 100 to 1000 | 100 to 1000 | < 0.1 | – | –
CCN1CCC(c2ccc3nc(-c4cc5cn(C)nc5cc4O)ccc3n2)CC1 [Compound 138, 5-[6-(1-ethylpiperidin-4-yl)-1,5-naphthyridin-2-yl]-2-methylindazol-6-ol] | 1 to 10 | 0.1 to 1 | 100 to 1000 | 100 to 1000 | < 0.1 | – | –
Cn1cc2c(O)c(-c3cc4ccc(C5CCNCC5)nc4cn3)cc(Br)c2n1 [Compound 141] | > 10 | 1 to 10 | 1000 to 10000 | 1000 to 10000 | 0.1 to 1 | – | –
CN1CCC(c2ccc3nc(-c4cc5cn(C)nc5cc4O)ccc3n2)CC1 [Compound 142, 2-methyl-5-[6-(1-methylpiperidin-4-yl)-1,5-naphthyridin-2-yl]indazol-6-ol] | 0.1 to 1 | 0.1 to 1 | 100 to 1000 | 100 to 1000 | < 0.1 | – | –
COc1cc2nn(C)cc2cc1-c1ccc2c(F)c(C3CCNCC3)ccc2n1 [Compound 143, 5-fluoro-2-(6-methoxy-2-methylindazol-5-yl)-6-(piperidin-4-yl)quinoline] | > 10 | > 10 | > 10000 | > 10000 | > 10 | – | –
Cn1cc2cc(-c3ccc4cc(C5CCNCC5)c(F)cc4n3)c(O)cc2n1 [Compound 144, 5-[7-fluoro-6-(piperidin-4-yl)quinolin-2-yl]-2-methylindazol-6-01] | > 10 | > 10 | > 10000 | > 10000 | > 10 | – | –
COc1cc2nn(C)cc2cc1-c1ccc2cc(C3CCNCC3)c(F)cc2n1 [Compound 145, 7-fluoro-2-(6-methoxy-2-methylindazol-5-yl)-6-(piperidin-4-yl)quinoline] | > 10 | > 10 | > 10000 | > 10000 | > 10 | – | –
Cn1cc2cc(O)c(-c3ccc4nc(C5CCNCC5)ccc4n3)cc2n1 [Compound 146, 2-methyl-6-[6-(piperidin-4-yl)-1,5-naphthyridin-2-yl]indazol-5-ol] | 1 to 10 | 1 to 10 | 1000 to 10000 | 1000 to 10000 | 0.1 to 1 | – | –
Cc1nc2cc(O)c(-c3ccc4nc(C5CCNCC5)ccc4n3)cc2o1 [Compound 147, 2-methyl-6-[6-(piperidin-4-yl)-1,5-naphthyridin-2-yl]-1,3-benzoxazol-5-ol] | < 0.1 | < 0.1 | < 100 | < 100 | < 0.1 | – | –
Cc1nc2cc(O)c(-c3ccc4nc(C5CCNCC5)ccc4n3)cc2s1 [Compound 148] | 1 to 10 | 1 to 10 | 1000 to 10000 | 1000 to 10000 | < 0.1 | – | –
Cc1cn2cc(-c3ccc4nc(C5CCNCC5)ccc4n3)c(O)cc2n1 [Compound 149, 2-methyl-6-[6-(piperidin-4-yl)-1,5-naphthyridin-2-yl]imidazo[1,2-a]pyridin-7-ol] | > 10 | > 10 | > 10000 | > 10000 | 0.1 to 1 | – | –
Cc1cn2nc(-c3ccc4nc(C5CCNCC5)ccc4n3)c(O)c2c(C)n1 [Compound 150, 4,6-dimethyl-2-[6-(piperidin-4-yl)-1,5-naphthyridin-2-yl]pyrazolo[1,5-a]pyrazin-3-01] | < 0.1 | < 0.1 | < 100 | < 100 | < 0.1 | – | –
Cc1cn2cc(-c3ccc4nc(C5CCNCC5)ccc4n3)c(O)c(C)c2n1 [Compound 151, 2,8-dimethyl-6-(6-(piperidin-4-yl)-1,5-naphthyridin-2-yl)imidazo[1,2-a]pyridin-7-ol hydrochloride] | 0.1 to 1 | 0.1 to 1 | 100 to 1000 | 100 to 1000 | 0.1 to 1 | – | –
c1c[nH]c(-c2ccc3nc(C4CCNCC4)ccc3n2)n1 [Compound 152, 2-(1H-imidazol-2-yl)-6-(piperidin-4-yl)-1,5-naphthyridine] | > 10 | > 10 | > 10000 | > 10000 | 1 to 10 | – | –
Cn1cc2cc(-c3ccc4nc(N5CC[C@@H](NC(C)(C)C)C5)ccc4n3)c(O)cc2n1 [Compound 153, 5-{6-[(3R)-3-(tert-butylamino)pyrrolidin-1-yl]-1,5-naphthyridin-2-yl}-2-methylindazol-6-ol] | < 0.1 | < 0.1 | < 100 | < 100 | < 0.1 | – | –
Cn1cc2cc(-c3ccc4nc(N5CC[C@H](NC(C)(C)C)C5)ccc4n3)c(O)cc2n1 [Compound 154, 5-{6-[(3S)-3-(tert-butylamino)pyrrolidin-1-yl]-1,5-naphthyridin-2-yl}-2-methylindazol-6-ol] | < 0.1 | < 0.1 | < 100 | < 100 | < 0.1 | – | –
Cn1cc2cc(-c3ccc4nc(N5CC[C@H](NC6CCC6)C5)ccc4n3)c(O)cc2n1 [Compound 156, 5-{6-[(3S)-3-(cyclobutylamino)pyrrolidin-1-yl]-1,5-naphthyridin-2-yl}-2-methylindazol-6-ol] | 0.1 to 1 | < 0.1 | – | – | < 0.1 | < 100 | < 100
Cn1cc2cc(-c3ccc4nc(N5CC[C@@H](NC6CCC6)C5)ccc4n3)c(O)cc2n1 [Compound 157] | 0.1 to 1 | < 0.1 | < 100 | < 100 | < 0.1 | – | –
Cn1cc2cc(-c3ccc4nc(N5CCC(NC6CC6)C5)ccc4n3)c(O)cc2n1 (stereo not drawn) [Compound 158] | < 0.1 | < 0.1 | < 100 | < 100 | < 0.1 | – | –
